Results reported in US12329158B2, “Large-scale methods of uniformly coating packaging surfaces with a volatile antimicrobial to preserve food freshness” (AGROFRESH INC., priority 2013, dated 2025).
In brackets after ≈: the same amount, converted by molar mass. Read-outs that look alike come from different tables or passages of the source.

Experiments:
Format in all cases: cell-based
Botrytis cinerea [1] = test: Volatile MIC assay (Example 10); details: 72 h, read-out: MIC (mg/L) BOTRCI
Protocol: (§1) 12-Well (6.5 mL volume per well) microtiter plates are used for the in vitro inhibition assay for volatile antimicrobial compounds. A 3-mL volume of full-strength Potato Dextrose Agar (PDA) is added to each well. After cooling, 1 μL of 1×10^5 per mL Botrytis cinerea and Penicillium expansum spore suspension is spot-pipetted to the center of the agar. Plates are inoculated immediately prior to volatile fungicide treatment. A Whatman #1 filter disk (Cat. No. 1001-0155) is placed, in duplicate, on the underside of a polyethylene PCR plate sealing film. […] The headspace around the inoculum is then sealed inside the well by the film with the adhering disk containing the fungicide by inverting the plates over the treated disks and sealing to prevent any of the chemical from flaking from the disk and falling onto the inoculated agar. After 3 days of storage at 23° C., the cultures are evaluated for percent growth relative to control based on measurement of fungal colony diameter.

Penicillium expansum [2] = test: Volatile MIC assay (Example 10); details: 72 h, read-out: MIC (mg/L) PENIEX
Protocol: as §1

Botrytis cinerea [3] = test: In vitro inhibition assay for volatile fungicide, 12-well plates (Example 7); details: volatile; 14 days at 4 C
Protocol: For testing activity against fungi pathogens, an in vitro inhibition assay for volatile antimicrobial compounds is developed using 12-Well (7 milliliter (mL) volume per well) microtiter plates. A 3-mL volume of full-strength Potato Dextrose Agar (PDA) is added to each well. After cooling, 1 microliter (μL) of 1×10^6 per mL Botrytis cinerea spore suspension is spot pipetted to the center of the agar. For the first experiment, inoculated plates are allowed to germinate for 5 days at 4° C. For the second experiment, plates are inoculated immediately prior to volatile fungicide treatment. Small Whatman #1 filter disks (Cat. No. 1001-0155) are placed, in duplicate, on the underside of a polyethylene PCR plate sealing film.
The acetone is permitted to evaporate for 5 minutes. The headspace around the Botrytis cinerea inoculum is then sealed inside the well by the film with the adhering disk containing the fungicide. Plates are inverted, placed over the treated disks and sealed to prevent any of the chemical from flaking from the disk and falling onto the inoculated agar. After 14 days of storage at 4° C., cultures are evaluated for percent growth relative to control. […]

B. cinerea = test: In vitro contact assay, amended agar (Example 24); details: Botrytis cinerea, 72 h, read-out: Contact MIC (mg/L) B. cinerea
Protocol: (§2) Contact assay: 6-well (16.5 mL volume per well) microtiter plates are used for an in vitro inhibition assay. […] A 7.5-mL volume of the amended media is added to each well of the microtiter plate. […] The plates are sealed with a clear film and incubated for 3 days at 23° C. After incubation, plates are evaluate for percent growth relative to acetone only control.

P. expansum = test: In vitro contact assay, amended agar (Example 24); details: Penicillium expansum, 72 h, read-out: Contact MIC (mg/L) P. expansum
Protocol: as §2

Botrytis cinerea [4] = test: Volatile MIC assay (Example 9); details: 72 h, headspace concentration, 3 days at 23 C, read-out: MIC (mg/L) BOTRCI
Protocol: (§3) A 3-mL volume of full-strength Potato Dextrose Agar (PDA) is added to each well. […] Plates are inoculated immediately prior to volatile fungicide treatment. A Whatman #1 filter disk (Cat. No. 1001-0155) is placed, in duplicate, on the underside of a polyethylene PCR plate sealing film. […] The acetone is permitted to evaporate for 5 minutes. The headspace around the inoculum is then sealed inside the well by the film with the adhering disk containing the fungicide by inverting the plates over the treated disks and sealing to prevent any of the chemical from flaking from the disk and falling onto the inoculated agar.

Penicillium expansum [5] = test: Volatile MIC assay (Example 9); details: 72 h, headspace concentration, 3 days at 23 C, read-out: MIC (mg/L) PENIEX
Protocol: as §3

Alternaria alternata = test: Volatile MIC assay (Example 9); details: 72 h, headspace concentration, 3 days at 23 C, read-out: MIC (mg/L) ALTEAL
Protocol: as §3

Monilinia fructicola = test: Volatile MIC assay (Example 9); details: 72 h, headspace concentration, 3 days at 23 C, read-out: MIC (mg/L) MONIFC
Protocol: as §3

Botrytis cinerea [6] = test: In vitro volatile assay (Example 24); details: 72 h, headspace, 100% control, 3 days at 23 C, read-out: Volatile MIC (mg/L) B. cinerea
Protocol: (§4) Volatile assay: 12-well (6.5 mL volume per well) microtiter plates are used. A 3-mL volume of half strength PDA is added to each well. […] A Whatman #1 filter disk (Cat. No. 1001-0155) is placed, in duplicate, on the underside of a polyethylene PCR plate sealing film. […] The acetone is permitted to evaporate for 5 minutes. The headspace around the inoculum is then sealed inside the well by the film with the adhering disk containing the fungicide. Plates are inverted, placed over the treated disks, and sealed to prevent any of the chemical from flaking from the disk and falling onto the inoculated agar. […] Contact assay: 6-well (16.5 mL volume per well) microtiter plates are used for an in vitro inhibition assay. […] A 7.5-mL volume of the amended media is added to each well of the microtiter plate. […] The plates are sealed with a clear film and incubated for 3 days at 23° C. After incubation, plates are evaluate for percent growth relative to acetone only control.

Penicillium expansum [7] = test: In vitro volatile assay (Example 24); details: 72 h, headspace, 100% control, 3 days at 23 C, read-out: Volatile MIC (mg/L) P. expansum
Protocol: as §4

[8] = system: Trichophyton mentagrophytes; test: In vitro volatile assay (Example 26); details: Trichophyton mentagrophytes, 120 h, 5 days at 28 C, 100% control, read-out: MIC (mg/L) Trichophyton mentagrophytes
Protocol: (§5) Volatile assay: 6-well (16.5 mL volume per well) microtiter plates are used in an in vitro inhibition assay for Compounds A and 31, and compared to other registered fungicides (5-fluorocytosine, Amphotericin B, aspofungin diacetate, Fluconazole and Itraconazole). A 7.5-mL volume of half strength PDA is added to each well. After drying, a mycelial plug (5 mm diameter) is aseptically obtained from actively growing cultures of Epidermophyton floccus, Trichophyton rubrum, or Trichophyton mentagrophytes and placed at the center of the plate with the mycelial side in contact with the agar. A Whatman #1 filter disk (Cat. No. 1001-325) is placed, in duplicate, on the underside of a polyethylene PCR plate sealing film. […] The headspace around the inoculum is then sealed inside the well by the film with the adhering disk containing the fungicide and incubated inverted for 5 days at 28° C.

Trichophyton rubrum [9] = test: In vitro volatile assay (Example 26); details: Trichophyton rubrum, 120 h, 5 days at 28 C, 100% control, read-out: MIC (mg/L) Trichophyton rubrum
Protocol: as §5

[10] = system: Trichophyton mentagrophytes; test: In vitro contact assay (Example 26); details: Trichophyton mentagrophytes, 120 h, 5 days at 28 C, 100% control, read-out: MIC (mg/L) Trichophyton mentagrophytes
Protocol: (§6) Half-strength Potato Dextrose Agar (PDA) is amended with a mixture of one of the test compounds in acetone or methanol to a final concentration of 50, 10, 2, 0.4 or 0.08 mg/L. A 3-mL volume of the amended media is added to each well of the microtiter plate. […] The plates are sealed with a clear film and incubated inverted for 5 days at 28° C.

Trichophyton rubrum [11] = test: In vitro contact assay (Example 26); details: Trichophyton rubrum, 120 h, 5 days at 28 C, 100% control, read-out: MIC (mg/L) Trichophyton rubrum
Protocol: as §6

[12] = volatile treatment, 3 days at 23 C
[13] = amended agar, 100% control, 3 days at 23 C

Question: With `Fc1ccc(B2OCc3cc(F)ccc32)cc1` [Compound 133] as the compound, how does the MIC (Botrytis cinerea [1]; [12]) read?
Answer: 8.9 mg/L (≈ 38.7 µM)

Question: And the MIC (Penicillium expansum [2]; [12])?
Answer: 35.7 mg/L (≈ 155 µM)

Question: `C[Si](C)(C)OB1OCc2ccccc21` [Compound 122] was tested. Which MIC (Botrytis cinerea [1]) did it give?
Answer: 2.2 mg/L (≈ 10.7 µM)

Question: Which results are given for `CN(C)CCOB1OCc2cc(F)ccc21` [Compound 74]?
Answer: MIC (Botrytis cinerea [1]; [12]): 2.2 mg/L (≈ 9.86 µM); MIC (Penicillium expansum [2]; [12]): 35.7 mg/L (≈ 160 µM)

Question: How did the MIC (Botrytis cinerea [1]; [12]) turn out when `Fc1ccc2c(c1)COB2c1ccccc1` [Compound 127] was run?
Answer: 2.2 mg/L (≈ 10.4 µM)

Question: And the MIC (Penicillium expansum [2]; [12])?
Answer: 4.5 mg/L (≈ 21.2 µM)

Question: How did the “Rate giving 100% in vitro inhibition of Botrytis cinerea” value (Botrytis cinerea [3]) turn out when `OB1OCc2ccccc21` [Compound B2, 2-(hydroxymethyl)phenylboronic acid cyclic monoester] was run?
Answer: 0.0078 mg/disk

Question: With `CN(C)CCCOB1OCc2cc(F)ccc21` [Compound 63] as the compound, how does the MIC (Botrytis cinerea [1]; [12]) read?
Answer: 1.1 mg/L (≈ 4.64 µM)

Question: What about the MIC (Penicillium expansum [2]; [12]) of the same compound?
Answer: 17.9 mg/L (≈ 75.5 µM)

Question: Which MIC (Botrytis cinerea [1]; [12]) does the source give for `OB1OCc2cc(F)c(F)cc21` [Compound 204] here?
Answer: 8.9 mg/L (≈ 52.4 µM)

Question: What about the MIC (Penicillium expansum [2]; [12]) of the same compound?
Answer: > 35.7 mg/L

Question: For `NCCCOB1OCc2cc(F)ccc21` [Compound 64], which MIC (Botrytis cinerea [1]; [12]) is on record?
Answer: 1.1 mg/L (≈ 5.26 µM)

Question: What about the MIC (Penicillium expansum [2]; [12]) of the same compound?
Answer: 8.9 mg/L (≈ 42.6 µM)

Question: Which results are given for `Nc1ccccc1OB1OCc2cc(F)ccc21` [Compound 116]?
Answer: MIC (Botrytis cinerea [1]; [12]): 1.1 mg/L (≈ 4.53 µM); MIC (Penicillium expansum [2]; [12]): 8.9 mg/L (≈ 36.6 µM)

Question: How did the MIC (Botrytis cinerea [1]; [12]) turn out when `OB1OC(N2CCOCC2)c2ccccc21` (stereo not shown) [Compound 114] was run?
Answer: 17.9 mg/L (≈ 81.7 µM)

Question: What about the MIC (Penicillium expansum [2]; [12]) of the same compound?
Answer: > 35.7 mg/L

Question: Which MIC (B. cinerea) does the source give for `N#C[B-]1(O)OCc2cc(F)ccc21.[K+]` (stereo not shown) [Compound 130] here?
Answer: 2 mg/L

Question: And the MIC (P. expansum)?
Answer: 0.4 mg/L

Question: And the MIC (Botrytis cinerea [1])?
Answer: 1.1 mg/L

Question: And the MIC (Penicillium expansum [2])?
Answer: 4.5 mg/L

Question: Which results are given for `OB1OCc2c(F)cccc21` [Compound 202]?
Answer: MIC (Botrytis cinerea [1]; [12]): 35.7 mg/L (≈ 235 µM); MIC (Penicillium expansum [2]; [12]): 143 mg/L (≈ 941 µM)

Question: Which MIC (Botrytis cinerea [1]; [12]) does the source give for `COCCCOB1OCc2cc(F)ccc21` [Compound 39] here?
Answer: 0.6 mg/L (≈ 2.68 µM)

Question: What about the MIC (Penicillium expansum [2]; [12]) of the same compound?
Answer: 8.9 mg/L (≈ 39.7 µM)

Question: How did the MIC (Botrytis cinerea [4]) turn out when `OB1OCc2ccc(F)cc21` [Compound 200] was run?
Answer: 10.6 mg/L (≈ 69.8 µM)

Question: And the MIC (Penicillium expansum [5])?
Answer: 68.3 mg/L (≈ 450 µM)

Question: And the MIC (Alternaria alternata)?
Answer: 7.3 mg/L (≈ 48 µM)

Question: What about the MIC (Monilinia fructicola) of the same compound?
Answer: 6.3 mg/L (≈ 41.5 µM)

Question: For `OCCCCCCOB1OCc2cc(F)ccc21` [Compound 86], which MIC (Botrytis cinerea [1]; [12]) is on record?
Answer: 0.6 mg/L (≈ 2.38 µM)

Question: And the MIC (Penicillium expansum [2]; [12])?
Answer: 8.9 mg/L (≈ 35.3 µM)

Question: Which MIC (Botrytis cinerea [1]; [12]) does the source give for `CNCCOB1OCc2cc(F)ccc21` [Compound 87] here?
Answer: 0.6 mg/L (≈ 2.87 µM)

Question: And the MIC (Penicillium expansum [2]; [12])?
Answer: 8.9 mg/L (≈ 42.6 µM)

Question: How did the MIC (Botrytis cinerea [6]) turn out when `Fc1ccc2c(c1)COB2OCCOB1OCc2cc(F)ccc21` [Compound B] was run?
Answer: 0.6 mg/L (≈ 1.82 µM)

Question: What about the MIC (Penicillium expansum [7]) of the same compound?
Answer: 8.9 mg/L (≈ 27 µM)

Question: What about the MIC (B. cinerea; [13]) of the same compound?
Answer: 0.4 mg/L (≈ 1.21 µM)

Question: And the MIC (P. expansum; [13])?
Answer: 2 mg/L (≈ 6.06 µM)

Question: `CC(COB1OCc2cc(F)ccc21)OB1OCc2cc(F)ccc21` (stereo not shown) [Compound 31] was tested. Which MIC (Botrytis cinerea [6]) did it give?
Answer: 0.6 mg/L (≈ 1.74 µM)

Question: And the MIC (Penicillium expansum [7])?
Answer: 8.9 mg/L (≈ 25.9 µM)

Question: What about the MIC [8] of the same compound?
Answer: 2 mg/L (≈ 5.82 µM)

Question: And the MIC (Trichophyton rubrum [9])?
Answer: 2 mg/L (≈ 5.82 µM)

Question: And the MIC (B. cinerea; [13])?
Answer: 0.4 mg/L (≈ 1.16 µM)

Question: What about the MIC (P. expansum; [13]) of the same compound?
Answer: 2 mg/L (≈ 5.82 µM)

Question: What about the MIC [10] of the same compound?
Answer: 2 mg/L (≈ 5.82 µM)

Question: And the MIC (Trichophyton rubrum [11])?
Answer: 10 mg/L (≈ 29.1 µM)
